The values that follow come from patent EP4680608B1, “2,6-DIHYDRO-7H-PYRAZOLO[3,4-C]PYRIDIN-7-ONE DERIVATIVES AS ANTI-MALARIAL AGENTS” (MMV Medicines for Malaria Venture, priority 2024, dated 2025).

One experiment addresses T1, P. falciparum DHODH (Plasmodium falciparum, UniProt Q08210).
T1 construct: His6 (N); made in house; host or cells: E. coli BL21-DE3 (phage-resistant)
In words: DHODH inhibition, steady-state DCIP assay (PfDHODH). It is filed as biochemical. The conditions noted are these: recombinant PfDHODH, DCIP method, 25°C, 5 nM enzyme.

Another experiment deals with P. falciparum 3D7. Kind of experiment: Asexual blood-stage growth inhibition assay, SYBR green method. It is filed as cell-based. The conditions noted are these: Plasmodium falciparum, 3D7, 72 h, ring-stage 3D7 parasites.
The target of a further experiment is P. vivax DHODH (Plasmodium vivax, UniProt A5K1N1). Kind of experiment: DHODH inhibition, steady-state DCIP assay (PvDHODH). It is filed as biochemical. The conditions noted are these: recombinant PvDHODH, DCIP method, 25°C, 5 nM enzyme; read-out: P. vivax DHODH (IC50).
Chain of P. vivax DHODH (A5K1N1 entry or part of it): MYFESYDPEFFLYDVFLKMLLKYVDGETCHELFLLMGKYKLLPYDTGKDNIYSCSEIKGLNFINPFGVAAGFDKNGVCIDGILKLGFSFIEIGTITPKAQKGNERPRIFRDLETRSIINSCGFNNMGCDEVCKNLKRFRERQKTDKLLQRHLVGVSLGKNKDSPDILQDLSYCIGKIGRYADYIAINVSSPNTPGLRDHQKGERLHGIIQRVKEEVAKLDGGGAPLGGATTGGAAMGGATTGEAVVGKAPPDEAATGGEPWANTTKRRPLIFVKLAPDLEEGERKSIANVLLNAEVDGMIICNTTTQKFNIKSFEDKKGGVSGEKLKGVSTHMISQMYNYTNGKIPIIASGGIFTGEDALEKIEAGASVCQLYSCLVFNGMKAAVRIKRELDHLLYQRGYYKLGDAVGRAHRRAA
A further experiment has as its target T2, Human DHODH (Homo sapiens, UniProt Q02127).
T2 construct: C-terminal His6-tagged HsDHODH residues 29-395 in pET-22b (start ^29MATGDE); His6 (C); made in house; host or cells: E. coli BL21-DE3 (phage-resistant)
Kind of experiment: DHODH inhibition, steady-state DCIP assay (human DHODH). The conditions noted are these: recombinant HsDHODH, DCIP method, 25°C, 5 nM enzyme; top concentration 100 µM or 30 µM. The experiment is classed as biochemical.

T1 sequence (Q08210 158-569): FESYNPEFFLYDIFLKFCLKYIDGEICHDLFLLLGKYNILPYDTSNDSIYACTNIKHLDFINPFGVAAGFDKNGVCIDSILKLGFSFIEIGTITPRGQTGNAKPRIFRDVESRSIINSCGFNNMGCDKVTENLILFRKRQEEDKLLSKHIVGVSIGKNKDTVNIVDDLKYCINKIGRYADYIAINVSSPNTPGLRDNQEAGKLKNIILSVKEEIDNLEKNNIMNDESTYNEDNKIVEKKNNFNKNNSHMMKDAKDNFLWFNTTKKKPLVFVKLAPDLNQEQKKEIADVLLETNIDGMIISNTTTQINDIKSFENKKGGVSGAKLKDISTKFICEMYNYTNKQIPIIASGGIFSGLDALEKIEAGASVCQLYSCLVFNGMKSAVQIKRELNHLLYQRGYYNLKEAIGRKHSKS
T2 sequence (Q02127 29-395): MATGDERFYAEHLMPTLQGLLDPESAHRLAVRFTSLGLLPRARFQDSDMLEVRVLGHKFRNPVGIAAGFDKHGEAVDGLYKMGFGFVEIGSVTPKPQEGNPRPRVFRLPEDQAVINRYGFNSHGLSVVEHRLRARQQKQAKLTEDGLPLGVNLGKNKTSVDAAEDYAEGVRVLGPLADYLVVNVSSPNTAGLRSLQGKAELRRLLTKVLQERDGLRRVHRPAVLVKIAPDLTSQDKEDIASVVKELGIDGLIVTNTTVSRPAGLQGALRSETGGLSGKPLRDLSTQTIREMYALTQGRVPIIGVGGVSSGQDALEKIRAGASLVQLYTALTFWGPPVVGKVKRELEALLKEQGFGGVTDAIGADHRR

What is called IC50 is the midpoint of a concentration-inhibition curve. The EC50 is the concentration that produces a half-maximal response. Low values mean higher potency in that assay, high ones lower potency in that assay. As to `CC[C@@](N)(c1ccc(C(F)(F)F)c(Cl)c1)c1c2ncn(C3CC3)c(=O)c2nn1C` (single isomer, unassigned) [4-26], the 50% inhibitory concentration (IC50) came to 9.5 nM on P. falciparum DHODH, 5.2 nM on P. vivax DHODH and 1400 nM at Human DHODH. For the same compound, the response in the experiment on P. falciparum 3D7 was half-maximal at 0.91 nM (EC50).
